# Laboratory results taken from US20240082218A1, “PHARMACEUTICAL COMBINATIONS COMPRISING A KRAS G12C INHIBITOR AND USES OF A KRAS G12C INHIBITOR FOR THE TREATMENT OF CANCERS” (priority 2020, published 2024).
# Like-named read-outs stand apart in the source and are kept apart here.
# Columns and labels:
# [1] = biological target: T1, KRASG12C (Homo sapiens, UniProt P01116, G12C); test: In vivo KRASG12C target occupancy in NCI-H2122 xenografts; parameters: endogenous in cells; conditions: 100 mg/kg QD oral
# Protocol: (§1) KRASG12C inhibition can be assessed by measuring free KRASG12C levels (target occupancy) and other biomarkers in the MAPK signaling pathway, such as decreased levels of phosphorylated ERK1/2 (pERK) and downregulation of DUSP6 mRNA transcript. […] In the less sensitive NCI-H2122 xenografts, orally administered JDQ443 (100 mg/kg QD) achieved approximately 80% KRASG12C inhibition and 90% decrease in DUSP6 mRNA transcript, causing stasis which is the maximum response in this model upon MAPK pathway inhibition.
# [2] = biological target: KRAS WT (Homo sapiens, UniProt P01116); test: cRAF recruitment 6 h cellular assay; format: cell-based
# [3] = biological target: T1, KRASG12C; test: cRAF recruitment 6 h cellular assay; format: cell-based
# [4] = biological target: T1, KRASG12C; test: In vivo KRASG12C target occupancy in MIA PaCa-2 xenografts; parameters: endogenous in cells; host or cells: MIA PaCa-2 tumour xenografts in mice
# Protocol: as §1
# [5] = biological target: T1, KRASG12C; test: KRASG12C target occupancy in LU99 xenografts after 5 days treatment; format: in vivo; parameters: KRASG12C target occupancy was assessed after 5 days treatment of LU99 xenografts; endogenous in cells; host or cells: LU99 tumour xenografts in nude mice; conditions: single-agent 30 mg/kg vs 100 mg/kg
# [6] = biological target: NRAS WT (Homo sapiens, UniProt P01111); test: cRAF recruitment 6 h cellular assay; format: cell-based
# [7] = tested on: advanced solid tumors harboring the KRAS G12C mutation; conditions: patients; preliminary data, trial ongoing
# Protocol: The study is conducted in adult patients with advanced solid tumors who harbor the KRAS G12C mutation. In expansion, advanced (metastatic or unresectable) non-small cell lung cancer patients who harbor the KRAS G12C mutation and who are in the second or third line treatment setting will be enrolled.
# In particular, it may be administered at a total daily dose of 400 mg, administered once daily or twice daily. It may also be administered at a total daily dose of 200 mg, administered once daily or twice daily.
# It may also be administered at a total daily dose of 600 mg, administered once or twice daily.
# TNO155 is administered p.o. QD or BID in a 2 week on/1 week off schedule or continuously.
# TNO155 may be administered at a total daily dose ranging from 10 to 80 mg, or from 10 to 60 mg. For example, the total daily dose of TNO155 may be selected from 10, 15, 20, 30, 40, 60 and 80 mg. For example, TNO may be dosed at a total daily dose of 10, 15, 20 or 30 mg.
# The total daily dose of TNO155 may be administered continuously, QD (once a day) or BID (twice a day) on QD or BID on a 2 weeks on/l week off schedule. The total daily dose of TNO155 may be administered continuously, QD (once a day) or BID (twice a day) on QD or BID on continuously (i.e. without a drug holiday). […]
# [8] = tested on: KYSE410 xenograft; test: Anti-tumor activity in KYSE410 (esophageal) xenografts; format: in vivo, mice; conditions: 10, 30 and 100 mg/kg oral daily
# [9] = tested on: Ba/F3 cells expressing FLAG-KRAS G12C/Y96D; test: Ba/F3 3-day proliferation, Cell titer glo (Example 12); format: cell-based, murine; conditions: Mus musculus
# Protocol: (§2) The parental Ba/F3 cells were cultured in the presence of 5 ng/ml of recombinant murine IL-3 (Life Technologies, #PMC0035).
# (§3) The mutant plasmids were transfected into the Ba/F3 WT cells by electroporation with the NEON transfection kit (Invitrogen, #MPK10025).
# (§4) Ba/F3 cells are normally dependent on IL-3 to survive and proliferate, however, by expressing oncogenes they are able to switch their dependency from IL-3 to the expressed oncogene. […] Cell number and viability was measured every three days and after seven days the IL-3 withdrawal was completed.
# (§5) Treatment was performed on the same day with a Tecan D300e drug dispenser. Viability was detected on the same day of treatment for the start plate (Day 0) and three days post-treatment (Day 3) using the CellTiter-Glo Luminescent Cell Viability Assay (Promega, #G7573) on a Tecan infinitiy M200 Pro reader (Intergration Time 1000 ms).
# (§6) To determine the growth, the three days post-treatment (Day 3) readout was normalized to start plate (Day 0). The percentage viability was then calculated by normalizing treated wells to DMSO treated control samples. XLfit was used to make the fitted curve with a Sigmoidal Dose-Response Model (four-parameter curve) (FIG. 7).
# [10] = tested on: Ba/F3 cells expressing FLAG-KRAS G12C/H95R; test: as above; format: cell-based, murine; conditions: Mus musculus
# Protocol: as §2, §3, §4, §5, §6
# [11] = tested on: Ba/F3 cells expressing FLAG-KRAS G12C/R68S; test: as above; format: cell-based, murine; conditions: Mus musculus
# Protocol: as §2, §3, §4, §5, §6
# [12] = tested on: Ba/F3 cells expressing FLAG-KRAS G12C/Y96C; test: as above; format: cell-based, murine; conditions: Mus musculus
# Protocol: as §2, §3, §4, §5, §6
# [13] = tested on: MIA PaCa-2 (KRASG12C pancreas) xenograft; test: Anti-tumor activity in MIA PaCa-2 xenografts; format: in vivo, mice
# [14] = tested on: KRAS G12C-mutated cell lines; test: pERK 6 h cellular assay; format: cell-based; conditions: Hec50, 6 h, read-out: pERK 6 h EC50 KRAS^G12C
# [15] = tested on: pERK; test: In vitro pERK inhibition in H358 cancer cells; format: cell-based; conditions: Homo sapiens, NCI-H358
# Protocol: as §1
# [16] = 4-week toxicity study; format: in vivo; conditions: dog
# [17] = tested on: DUSP6 mRNA transcript; test: In vivo DUSP6 mRNA in MIA PaCa-2 xenografts; conditions: 30 mg/kg QD oral
# [18] = biological target: T1, KRASG12C; test: Cellular target occupancy 6 h; format: cell-based
# [19] = tested on: MEK Q56P mutated cell lines; test: Proliferation cellular assay; format: cell-based
# [20] = biological target: HRAS WT (Homo sapiens, UniProt P01112); test: cRAF recruitment 6 h cellular assay; format: cell-based
# [21] = biological target: T1, KRASG12C; test: In vitro KRAS G12C target occupancy in H358 cancer cells; format: cell-based; parameters: endogenous in cells; host or cells: H358 (NCI-H358) cancer cells; conditions: read-out: in vitro IC50 for inhibition of KRAS G12C (target occupancy)
# Protocol: as §1
# [22] = tested on: DUSP6 mRNA transcript; test: In vivo DUSP6 mRNA in NCI-H2122 xenografts; conditions: 100 mg/kg QD oral
# Protocol: as §1
# [23] = BaF3, 72 h, 3 days, 4 independent experiments, read-out: GI50 ± St DV
# NRAS WT, sequence (P01111 whole entry): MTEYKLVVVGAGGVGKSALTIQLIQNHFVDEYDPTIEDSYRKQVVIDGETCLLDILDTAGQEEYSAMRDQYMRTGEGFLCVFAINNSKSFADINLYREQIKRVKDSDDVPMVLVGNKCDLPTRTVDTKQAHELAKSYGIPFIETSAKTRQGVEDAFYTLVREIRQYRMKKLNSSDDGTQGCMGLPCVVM
# HRAS WT, sequence (P01112 whole entry): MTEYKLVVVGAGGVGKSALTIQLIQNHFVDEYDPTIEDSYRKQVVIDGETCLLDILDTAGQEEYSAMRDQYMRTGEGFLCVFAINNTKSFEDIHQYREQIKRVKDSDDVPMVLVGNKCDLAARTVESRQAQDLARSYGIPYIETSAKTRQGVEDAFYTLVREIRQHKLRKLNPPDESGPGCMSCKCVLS
smiles,measurement,setting,value
"C=CC(=O)N1CC2(CC(n3nc(-c4ccc5c(cnn5C)c4)c(-c4c(Cl)c(C)cc5[nH]ncc45)c3C)C2)C1 (single isomer, unassigned) [Compound A, 1-{6-[(4M)-4-(5-Chloro-6-methyl-1H-indazol-4-yl)-5-methyl-3-(1-methyl-1H-indazol-5-yl)-1H-pyrazol-1-yl]-2-azaspiro[3.3]heptan-2-yl}prop-2-en-1-one]",inhibition at 100 mg/kg,[1],~80%
same,EC50,[2],> 10000 nM
same,EC50,[3],20 nM
same,inhibition at 30 mg/kg,"[4]; MIA PaCa-2 xenografts, 30 mg/kg QD oral",~90%
same,KRASG12C TO t1/2,"[4]; in vivo, MiaPaCa2 model",~66 h
same,reduction of free KRAS^G12C in tumors,[5],less reduction of free KRAS^G12C
same,EC50,[6],> 6000 nM
same,clinical efficacy,[7],early signs of clinical efficacy
same,clinical safety and tolerability,[7],acceptable safety and tolerability profile
same,pattern of maximal response,[8],moderate tumor growth inhibition
same,GI50,[9]; [23],> 1000 nM
same,GI50,"[9]; BaF3, read-out: GI50",> 1000 nM
same,GI50,[10]; [23],24 ± 6 nM
same,GI50,"[10]; BaF3, read-out: GI50",24 ± 6 nM
same,GI50,[11]; [23],> 1000 nM
same,GI50,"[11]; BaF3, read-out: GI50",> 1000 nM
same,GI50,[12]; [23],> 1000 nM
same,GI50,"[12]; BaF3, read-out: GI50",> 1000 nM
same,anti-tumor activity,[13]; 3 mg/kg daily oral,tumor stasis
same,anti-tumor activity,"[13]; 5 mg/kg twice daily, compared with 10 mg/kg daily",comparable regression
same,anti-tumor activity,[13]; 10 mg/kg daily oral,tumor regression
same,anti-tumor activity,"[13]; 15 mg/kg twice daily, compared with 30 mg/kg qd",same tumor regression
same,tumor growth inhibition by schedule,[13]; 30 mg/kg daily compared to 30 mg/kg q3d or 90 mg/kg q3d,better tumor growth inhibition
same,anti-tumor activity,[13]; 30 mg/kg daily oral,tumor regression
same,anti-tumor activity,[13]; 100 mg/kg daily oral,tumor regression
same,pattern of maximal response,"[13]; 10, 30 and 100 mg/kg oral daily",regression
same,EC50,[14],20 nM
same,IC50,[15],20 nM
same,tolerability in 4-week toxicity study,[16],well tolerated
same,decrease in DUSP6 mRNA transcript,[17],~75%
same,EC50,[18],30 nM
same,GI50,[19],4000 nM
same,EC50,[20],> 10000 nM
same,IC50,[21],20 nM
same,decrease in DUSP6 mRNA transcript,[22],approximately 90%
